Structures can show the parent of a compound that is named as a salt. Where two headings read alike, the source gives them in different places.
Assays:
AuroraA-TPX2 = molecular target: T1, AuroraA-TPX2 (Homo sapiens, UniProt O14965); test: AuroraA-TPX2 Homogeneous Time Resolved Fluorescent (HTRF) kinase assay; type: biochemical
T1 construct: 20 µL of AuroraA-TPX2 KD GST; GST
T1 sequence (O14965 133-383 limits assumed): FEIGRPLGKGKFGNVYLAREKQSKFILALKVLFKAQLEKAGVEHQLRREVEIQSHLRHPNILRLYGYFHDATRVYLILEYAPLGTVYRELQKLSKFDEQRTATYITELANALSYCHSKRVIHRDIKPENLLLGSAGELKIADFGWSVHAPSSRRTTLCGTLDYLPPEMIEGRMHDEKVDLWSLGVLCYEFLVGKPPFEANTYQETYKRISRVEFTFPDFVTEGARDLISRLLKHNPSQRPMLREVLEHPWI
T1 sequence (Q9ULW0 1-43 partner limits assumed): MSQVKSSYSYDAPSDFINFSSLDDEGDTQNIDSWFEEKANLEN
Procedure: AuroraA-TPX2-Homogeneous Time Resolved Fluorescent (HTRF) Kinase Assay:
The Aurora-A HTRF assay begins with Aurora-A in the presence of ATP phosphorylating the biotinylated peptide PLK. The reaction incubates for about 120 min. Detection reagents are added to quench the reaction. These agents stop the reaction by diluting out the enzyme and chelating the metals due to the presence of EDTA. After addition, the assay is incubated overnight to allow the detection reagents to equilibrate.
The final concentration of PLK is about 1 µM. […] Buffer conditions are as follows: 60mM HEPES pH 7.5, 25mM NaCl, 10mM MgCl, 2mM DTT, 0.05% BSA.
(§1) The assay is quenched and stopped with 160 µL, of detection reagent. Detection reagents are as follows: Buffer made of 50mM Tris, pH 7.5, 100mM NaCl, 3mM EDTA, 0.05% BSA, 0.1% Tween20. Added to this buffer prior to reading is Steptavidin allophycocyanin (SA-APC) at a final conc in the assay of 0.0005 mg/mL, and europilated anti-phosphoPLK Ab (Eu-anti-PLK) at a final conc of 0.02 nM.
The assay plate is read in either a Discovery or a RubyStar. The eu-anti-PLK is excited at 320 nm and emits at 615 nm to excite the SA-APC which in turn emits at 655 nm.

AuroraB = molecular target: T2, AuroraB (Homo sapiens, UniProt Q96GD4); test: AuroraB Homogeneous Time Resolved Fluorescent (HTRF) kinase assay; type: biochemical
T2 construct: 20 µL of AuroraB FL His; His
T2 sequence (Q96GD4 whole entry): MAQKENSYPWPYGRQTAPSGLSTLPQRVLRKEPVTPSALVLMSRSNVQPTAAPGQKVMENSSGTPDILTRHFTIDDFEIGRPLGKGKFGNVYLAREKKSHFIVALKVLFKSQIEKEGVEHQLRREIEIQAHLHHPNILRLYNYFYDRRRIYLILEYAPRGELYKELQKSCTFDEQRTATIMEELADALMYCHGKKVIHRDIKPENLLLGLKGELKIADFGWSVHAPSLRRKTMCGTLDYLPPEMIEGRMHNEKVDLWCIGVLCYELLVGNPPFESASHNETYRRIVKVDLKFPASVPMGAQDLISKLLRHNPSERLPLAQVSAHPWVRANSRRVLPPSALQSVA
Procedure: AuroraB-Homogeneous Time Resolved Fluorescent (HTRF) Kinase Assay:
The AuroraB HTRF assay begins with AuroraB in the presence of ATP phosphorylating the biotinylated peptide Histone H3. The reaction incubates for about 90 min. the reaction is quentched by addition of detection reagents, which stop the reaction by diluting out the enzyme and chelating the metals due to the presence of EDTA. After addition, the assay is incubated for about 60 min to allow detection reagents to equilibrate.
The AuroraB HTRF assay comprises 1 µL of compound in 100% DMSO, 20 µL of ATP and biotinylated Histone H3, and 20 µL of AuroraB FL His for a final volume of 41 µL. The final concentration of Histone H3 is 0.1 µM. The final concentration of ATP is 23 µM (Km(app) = 23 µM+/-2.6) and the final concentration of AuroraB is 400 pM. Buffer conditions are as follows: 50mM HEPES pH 7.5, 5mM NaCl, 0.5mM MgCl, 0.5mM MnCl, 2mM DTT, 0.05% BSA.
as §1, with “µL” for “µL,”, “0.001” for “0.0005”, “anti-phosphoHistoneH3” for “anti-phosphoPLK”, “(Eu-anti-HisH3)” for “(Eu-anti-PLK)”, “0.064” for “0.02”
The assay plate is read in either a Discovery or a RubyStar. The eu-anti-HisH3 is excited at 320 nm and emits at 615 nm to excite the SA-APC which in turn emits at 655 nm. The ratio of SA-APC at 655 nm (excited due to close proximity to the Eu-anti-HisH3 because of phosphorylation of the peptide) to free Eu-anti-HisH3 at 615 nm will give substrate phosphorylation.

[1] = read-out: average inhibitory activity (IC50) in the Aurora kinase A HTRF assay
[2] = read-out: average activity in the Aurora kinase A HTRF assay
[3] = read-out: average activity in the Aurora kinase B HTRF assay
[4] = average, given as numbers, unit inferred, read-out: AurA/TP X2_ IC50_IP (Avg)
[5] = average, given as numbers, unit inferred, read-out: AurB_ _IC50_IP (Avg)
[6] = average, given as class symbols, read-out: AurA/TP X2_ IC50_IP (Avg)
[7] = average, given as class symbols, read-out: AurB_ _IC50_IP (Avg)

Compound	IC50 (AuroraA-TPX2; [2]) [nM]	IC50 (AuroraB; [3]) [nM]	IC50 (AuroraB; [7]) [nM]	also measured
CNc1cc(-c2cccnc2Oc2ccc(Nc3nnc(-c4ccc(F)cc4)c4ccccc34)cn2)ccn1 [Example 60, 2-((5-((4-(4-fluorophenyl)-1-phthalazinyl)amino)-2-pyridinyl)oxy)-N-methyl-3,4'-bipyridin-2'-amine]	–	–	–	IC50 (AuroraA-TPX2; [1]): < 500 nM
c1ccc(-c2nnc(Nc3ccc(Oc4ncccc4-c4ccnc5[nH]ccc45)cc3)c3ccccc23)cc1 [Example 61, 4-phenyl-N-(4-((3-(1H-pyrrolo[2,3-b]pyridin-4-yl)-2-pyridinyl)oxy)phenyl)-1-phthalazinamine]	–	–	–	IC50 (AuroraA-TPX2; [1]): < 500 nM
Nc1nccc(-c2cccnc2Oc2ccc(Nc3nnc(N4CCCCC4)c4ccccc34)cc2)n1 [Example 67, N-(4-((3-(2-amino-4-pyrimidinyl)-2-pyridinyl)oxy)phenyl)-4-(1-piperidinyl)-1-phthalazinamine]	–	–	–	IC50 (AuroraA-TPX2; [1]): < 500 nM
CNc1nccc(-c2cccnc2Oc2ccc(Nc3nnc(N4CCCCC4)c4ccccc34)cn2)n1 [Example 68, N-(6-((3-(2-(methylamino)-4-pyrimidinyl)-2-pyridinyl)oxy)-3-pyridinyl)-4-(1-piperidinyl)-1-phthalazinamine]	–	–	–	IC50 (AuroraA-TPX2; [1]): < 500 nM
NC(=O)c1n[nH]cc1-c1cccnc1Oc1ccc(Nc2nnc(-c3ccccc3)c3ccccc23)cc1 [Example 241, 4-(2-(4-(4-phenylphthalazin-1-ylamino)phenoxy)pyridin-3-yl)-1H-pyrazole-3-carboxamide]	≤ 1000	≤ 1000	–	–
CNc1nccc(-c2cccnc2Oc2ccc(Nc3nnc(-c4cc(Cl)cs4)c4ccccc34)cc2)n1 [Example 245, 4-(4-chlorothiophen-2-yl)-N-(4-(3-(2-(methylamino)pyrimidin-4-yl)pyridin-2-yloxy)phenyl)phthalazin-1-amine]	≤ 1000	≤ 1000	–	–
c1ccc(-c2nnc(Nc3cnc(Oc4ccccc4-c4ccncc4)nc3)c3ccccc23)cc1 [Example 468, 4-Phenyl-N-(2-(2-(pyridin-4-yl)phenoxy)pyrimidin-5-yl)phthalazin-1-amine]	≤ 100	≤ 100	–	–
Nc1ncc(F)c(-c2cccnc2Oc2ccc(Nc3nnc(-c4ccccc4)c4ccccc34)cc2)n1 [Example 469, N-(4-(3-(2-Amino-5-fluoropyrimidin-4-yl)pyridin-2-yloxy)phenyl)-4-phenylphthalazin-1-amine]	≤ 100	≤ 100	–	–
COC(=O)c1cc(-c2ccccc2)nnc1Nc1ccc(Oc2ncccc2-c2ccnc(N)n2)cc1 [Example 470, methyl 3-((4-((3-(2-amino-4-pyrimidinyl)-2-pyridinyl)oxy)phenyl)amino)-6-phenyl-4-pyridazinecarboxylate]	≤ 1000	≤ 1000	–	–
Nc1nccc(-c2cccnc2Oc2ccc(Nc3nnc(-c4ccc(CN5CCCC5)cc4)c4ccccc34)cc2)n1 [Example Method E, N-(4-(3-(2-aminopyrimidin-4-yl)pyridin-2-yloxy)phenyl)-4-(4-(pyrrolidin-1-ylmethyl)phenyl)phthalazin-1-amine]	≤ 1000	≤ 1000	–	–
O=P(O)(O)OCCCNc1nccc(-c2cccnc2Oc2ccc(Nc3nnc(-c4ccccc4)c4ccccc34)cc2)n1 [Example Method F, 3-(4-(2-(4-(4-phenylphthalazin-1-ylamino)phenoxy)pyridin-3-yl)pyrimidin-2-ylamino)propyl dihydrogen phosphate dihydrochloride]	≤ 100	≤ 100	–	–
Cc1cc(-c2nnc(Nc3ccc(Oc4ncccc4-c4ccnc(N)n4)cc3)c3ccccc23)sn1 [compound 251, N-(4-((3-(2-amino-4-pyrimidinyl)-2-pyridinyl)oxy)phenyl)-4-(3-methyl-5-isothiazolyl)-1-phthalazinamine]	–	–	–	IC50 (AuroraA-TPX2; [4]): 16 nM; IC50 (AuroraB; [5]): 0.4 nM
c1ccc(-c2nnc(Nc3ccc(Oc4ccccc4-c4ccncc4)cc3)c3ccccc23)cc1 [compound 252, 4-phenyl-N-(4-((2-(4-pyridinyl)phenyl)oxy)phenyl)-1-phthalazinamine]	–	–	–	IC50 (AuroraA-TPX2; [4]): 166 nM; IC50 (AuroraB; [5]): 660 nM
COc1cccc(OC)c1-c1nnc(Nc2ccc(Oc3ncccc3-c3ccnc(N)n3)cc2)c2ccccc12 [compound 253, N-(4-((3-(2-amino-4-pyrimidinyl)-2-pyridinyl)oxy)phenyl)-4-(2,6-bis(methyloxy)phenyl)-1-phthalazinamine]	–	–	–	IC50 (AuroraA-TPX2; [4]): 2320 nM; IC50 (AuroraB; [5]): 472 nM
Nc1nccc(-c2ccccc2Oc2ccc(Nc3nnc(-c4ccccc4)c4ccccc34)cc2)n1 [compound 254, N-(4-((2-(2-amino-4-pyrimidinyl)phenyl)oxy)phenyl)-4-phenyl-1-phthalazinamine]	–	–	≤ 100	IC50 (AuroraA-TPX2; [6]): ≤ 100 nM
CNc1cc(-c2cccnc2Nc2ccc(Nc3nnc(-c4ccccc4)c4ccccc34)cc2)ncn1 [compound 255, N-(3-(6-(methylamino)-4-pyrimidinyl)-2-pyridinyl)-N'-(4-phenyl-1-phthalazinyl)-1,4-benzenediamine]	–	–	≤ 100	IC50 (AuroraA-TPX2; [6]): 100 to 500 nM
Cc1csc(-c2cc(C)c(Nc3ccc(Oc4ncccc4-c4ccnc5c4CCCN5)cc3)nn2)n1 [compound 286, 4-methyl-6-(4-methyl-1,3-thiazol-2-yl)-N-(4-((3-(5,6,7,8-tetrahydro-1,8-naphthyridin-4-yl)-2-pyridinyl)oxy)phenyl)-3-pyridazinamine]	–	–	500 to 2500	–
COc1ccc(CNc2cc(-c3ccccc3Oc3ncc(Nc4nnc(-c5ccccc5)c5ccccc45)cn3)ccn2)cc1 [compound 290, N-(2-((2-(2-(((4-(methyloxy)phenyl)methyl)amino)-4-pyridinyl)phenyl)oxy)-5-pyrimidinyl)-4-phenyl-1-phthalazinamine]	–	–	500 to 2500	–
c1ccc(-c2nnc(Nc3ccc(Oc4ncccc4-c4ccnc(N5CCC5)n4)cc3)c3ccccc23)cc1 [compound 294, N-(4-((3-(2-(1-azetidinyl)-4-pyrimidinyl)-2-pyridinyl)oxy)phenyl)-4-phenyl-1-phthalazinamine]	–	–	≤ 100	–
Oc1nccc(-c2cccnc2Oc2ccc(Nc3nnc(-c4ccccc4)c4ccccc34)cc2)n1 [compound 325, 4-(2-((4-((4-phenyl-1-phthalazinyl)amino)phenyl)oxy)-3-pyridinyl)-2-pyrimidinol]	–	–	–	IC50 (AuroraA-TPX2; [6]): 500 to 2500 nM
Nc1nccc(-c2cccnc2Oc2ccc(Nc3nnc(N4CCC(CO)CC4)c4ccccc34)cc2)n1 [compound 353, (1-(4-((4-((3-(2-amino-4-pyrimidinyl)-2-pyridinyl)oxy)phenyl)amino)-1-phthalazinyl)-4-piperidinyl)methanol]	–	–	≤ 100	–
C[C@H]1CN(c2nnc(Nc3ccc(Oc4ncccc4-c4ccnc(N)n4)cc3)c3ccccc23)CCN1 [compound 398, N-(4-((3-(2-amino-4-pyrimidinyl)-2-pyridinyl)oxy)phenyl)-4-((3S)-3-methyl-1-piperazinyl)-1-phthalazinamine]	–	–	100 to 500	–
Nc1nccc(-c2cccnc2Oc2ccc(Nc3nnc(-c4cccc(CNCCO)c4)c4ccccc34)cc2)n1 [compound 413, 2-(((3-(4-((4-((3-(2-amino-4-pyrimidinyl)-2-pyridinyl)oxy)phenyl)amino)-1-phthalazinyl)phenyl)methyl)amino)ethanol]	–	–	≤ 100	–
